{
  "source": "patent US8809372B2",
  "about": "“Pyridine derivatives” (Endo Pharmaceuticals, Inc., priority 2011, dated 2014)",
  "data": [
    {"target": "T1, human CYP17 in H295R adrenocortical carcinoma cells (Homo sapiens, UniProt P05093)", "T1 construct": "H295R Adrenocortical carcinoma cells [NCI-H295A, ATCC Number CRL-2128, American Type Culture Collection; host or cells: H295R adrenocortical carcinoma cells", "T1 sequence (P05093 1-508)": "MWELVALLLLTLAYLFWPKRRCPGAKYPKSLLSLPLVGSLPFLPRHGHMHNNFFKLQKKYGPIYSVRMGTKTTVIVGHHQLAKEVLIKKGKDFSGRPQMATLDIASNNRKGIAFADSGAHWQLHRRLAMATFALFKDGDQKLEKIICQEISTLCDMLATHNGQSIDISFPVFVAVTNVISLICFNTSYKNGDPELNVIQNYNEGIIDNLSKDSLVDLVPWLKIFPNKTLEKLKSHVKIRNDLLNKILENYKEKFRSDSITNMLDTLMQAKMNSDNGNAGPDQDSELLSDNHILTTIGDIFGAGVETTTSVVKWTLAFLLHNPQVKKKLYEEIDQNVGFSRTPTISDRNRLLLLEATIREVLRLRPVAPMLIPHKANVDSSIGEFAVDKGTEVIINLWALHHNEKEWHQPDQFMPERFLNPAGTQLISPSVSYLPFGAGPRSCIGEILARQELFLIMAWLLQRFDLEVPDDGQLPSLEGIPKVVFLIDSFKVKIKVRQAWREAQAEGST", "assay": "Cell-based human CYP17 inhibition assay, H295R cells", "details": "16 hours, read-out: CYP17 (human H295R adrenal cells)", "summary_of_the_method": "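H295R cells or LNCaP cells stably transfected with full-length human CYP17A1 (30,000/well) incubated 16 h at 37 °C with ³H-17α-hydroxypregnenolone and compound (top 10 μM, 3-fold dilutions, up to 10 concentrations). Medium chloroform-extracted and charcoal-treated; aqueous-phase radioactivity counted by scintillation.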", "units": {"IC50": "nM"}, "values": [
      {"smiles": "CC(O)(c1ccncc1)c1cnc(-c2ccc(Cl)c(C#N)c2)s1", "note": "(centres unmarked) [Example 42, 2-chloro-5-(5-(1-hydroxy-1-(pyridin-4-yl)ethyl)thiazol-2-yl)benzonitrile]", "IC50": "< 50"},
      {"smiles": "CC(O)(c1ccncc1)c1cc(-c2ccc(F)cc2)no1", "note": "(centres unmarked) [Example 32, 1-[3-(4-Fluoro-phenyl)-isoxazol-5-yl]-1-pyridin-4-yl-ethanol]", "IC50": "50 to 200"},
      {"smiles": "CC(O)(c1ccncc1)c1cnc(-c2ccc(C#N)cc2)s1", "note": "(centres unmarked) [Example 56, 4-(5-(1-hydroxy-1-(pyridin-4-yl)ethyl)thiazol-2-yl)benzonitrile]", "IC50": "50 to 200"},
      {"smiles": "CC(C)CC(O)(c1ccncc1)c1cnc(-c2ccc(F)cc2)s1", "note": "(centres unmarked) [Example 47, 1-(2-(4-fluorophenyl)thiazol-5-yl)-3-methyl-1-(pyridin-4-yl)butan-1-ol]", "IC50": "< 50"}
    ]},
    {"target": "T2, rat CYP17 (rat testicular microsomes) (Rattus norvegicus, UniProt P11715)", "T2 construct": "Rat testis tissue was collected and disrupted with 30 strokes of a glass homogenizer; from tissue; host or cells: rat testis (microsomes)", "T2 sequence (P11715 1-507)": "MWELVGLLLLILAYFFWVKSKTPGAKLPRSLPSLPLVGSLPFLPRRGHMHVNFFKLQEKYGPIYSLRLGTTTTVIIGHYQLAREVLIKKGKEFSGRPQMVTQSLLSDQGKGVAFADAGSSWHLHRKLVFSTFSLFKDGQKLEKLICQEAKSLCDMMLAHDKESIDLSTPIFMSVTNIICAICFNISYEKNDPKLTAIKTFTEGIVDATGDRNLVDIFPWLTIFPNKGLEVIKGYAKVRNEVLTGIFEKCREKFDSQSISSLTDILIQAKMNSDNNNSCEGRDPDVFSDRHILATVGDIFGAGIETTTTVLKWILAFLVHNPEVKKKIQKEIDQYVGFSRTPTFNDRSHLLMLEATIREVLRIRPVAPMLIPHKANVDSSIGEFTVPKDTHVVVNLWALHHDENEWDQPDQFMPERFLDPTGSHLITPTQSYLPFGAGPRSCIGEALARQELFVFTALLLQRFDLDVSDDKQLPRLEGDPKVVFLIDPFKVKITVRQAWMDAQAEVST", "assay": "CYP17 inhibition assay in rat testicular microsomes", "type": "biochemical", "details": "not given", "summary_of_the_method": "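Rat testicular microsomes (150–160 μg) or yeast microsomes expressing human CYP17 (1.7 pmol) react with ³H-17α-hydroxypregnenolone (1 μCi/reaction) and 325 μM NADPH in potassium phosphate buffer, pH 7.4. Compound is pre-incubated with substrate for 15 min, then the reaction runs 60 min at 37 °C. After chloroform extraction and charcoal treatment, aqueous radioactivity is measured by scintillation counting.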", "units": {"IC50": "nM"}, "values": [
      {"smiles": "CC(O)(c1ccncc1)c1cnc(-c2ccc(Cl)c(C#N)c2)s1", "note": "(centres unmarked) [Example 42, 2-chloro-5-(5-(1-hydroxy-1-(pyridin-4-yl)ethyl)thiazol-2-yl)benzonitrile]", "IC50": "< 50"},
      {"smiles": "CC(O)(c1ccncc1)c1cc(-c2ccc(F)cc2)no1", "note": "(centres unmarked) [Example 32, 1-[3-(4-Fluoro-phenyl)-isoxazol-5-yl]-1-pyridin-4-yl-ethanol]", "IC50": "< 50"},
      {"smiles": "CC(O)(c1ccncc1)c1cnc(-c2ccc(C#N)cc2)s1", "note": "(centres unmarked) [Example 56, 4-(5-(1-hydroxy-1-(pyridin-4-yl)ethyl)thiazol-2-yl)benzonitrile]", "IC50": "< 50"},
      {"smiles": "CC(C)CC(O)(c1ccncc1)c1cnc(-c2ccc(F)cc2)s1", "note": "(centres unmarked) [Example 47, 1-(2-(4-fluorophenyl)thiazol-5-yl)-3-methyl-1-(pyridin-4-yl)butan-1-ol]", "IC50": "< 50"}
    ]}
  ]
}
